{"source": "PubChem BioAssay (NCI)", "note": "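In this assay, cells in 96-well plates receive the compound at five concentrations for 48 hours. Endpoints are linearly interpolated between the surrounding concentrations. TGI is the concentration that stops growth completely.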"}
{"test_system": "HOP-62 NSCLC", "assay": "NCI-60 cell line screen, 48 h", "units": {"TGI": "µM"}}
{"smiles": "CN1C(=O)C2CCCC(=O)N2c2cccnc21", "note": "(centres undefined)", "TGI": "> 100"}
{"smiles": "Cc1ncc([N+](=O)[O-])n1CCNCCCCn1ccnc1[N+](=O)[O-]", "TGI": "> 100"}
{"test_system": "HOP-92 NSCLC", "assay": "NCI-60 cell line screen, 48 h", "units": {"TGI": "µM"}}
{"smiles": "CC12CCC3c4ccc(O)cc4CCC3C1C/C(=N\\O)C2O", "note": "(centres undefined)", "TGI": "> 100"}
{"smiles": "Cc1ncc([N+](=O)[O-])n1CCNCCCCn1ccnc1[N+](=O)[O-]", "TGI": "> 100"}
{"test_system": "HS 578T breast", "assay": "NCI-60 cell line screen, 48 h", "units": {"TGI": "µM"}}
{"smiles": "CC12CCC3c4ccc(O)cc4CCC3C1C/C(=N\\O)C2O", "note": "(centres undefined)", "TGI": "> 100"}
{"smiles": "O=c1[nH]c2ccc(O)cc2o1", "TGI": "> 100"}
{"smiles": "CC(=O)N(C)CCc1c[nH]c2ccccc12", "TGI": "> 100"}
{"smiles": "O=C(NNC(=O)c1ccccc1O)c1cccc(Br)c1", "TGI": "> 100"}
{"smiles": "CCOc1nnnc2nc[nH]c12", "TGI": "> 100"}
{"smiles": "CN(C)CCSc1cc(-c2ccccc2)c2ccccc2n1", "TGI": 21.9}
{"smiles": "CN1C(=O)C2CCCC(=O)N2c2cccnc21", "note": "(centres undefined)", "TGI": "> 100"}
{"smiles": "Cc1ncc([N+](=O)[O-])n1CCNCCCCn1ccnc1[N+](=O)[O-]", "TGI": "> 100"}
{"test_system": "HT29 colon", "assay": "NCI-60 cell line screen, 48 h", "units": {"TGI": "µM"}}
{"smiles": "CC12CCC3c4ccc(O)cc4CCC3C1C/C(=N\\O)C2O", "note": "(centres undefined)", "TGI": "> 100"}
{"smiles": "O=c1[nH]c2ccc(O)cc2o1", "TGI": "> 100"}
{"smiles": "CC(=O)N(C)CCc1c[nH]c2ccccc12", "TGI": "> 100"}
{"smiles": "O=C(NNC(=O)c1ccccc1O)c1cccc(Br)c1", "TGI": "> 100"}
{"smiles": "CCOc1nnnc2nc[nH]c12", "TGI": "> 100"}
{"smiles": "CN(C)CCSc1cc(-c2ccccc2)c2ccccc2n1", "TGI": 35.8}
{"smiles": "CN1C(=O)C2CCCC(=O)N2c2cccnc21", "note": "(centres undefined)", "TGI": "> 100"}
{"smiles": "Cc1ncc([N+](=O)[O-])n1CCNCCCCn1ccnc1[N+](=O)[O-]", "TGI": "> 100"}
{"test_system": "IGROV1 ovarian", "assay": "NCI-60 cell line screen, 48 h", "units": {"TGI": "µM"}}
{"smiles": "CC12CCC3c4ccc(O)cc4CCC3C1C/C(=N\\O)C2O", "note": "(centres undefined)", "TGI": "> 100"}
{"smiles": "O=c1[nH]c2ccc(O)cc2o1", "TGI": "> 100"}
{"smiles": "CC(=O)N(C)CCc1c[nH]c2ccccc12", "TGI": "> 100"}
{"smiles": "O=C(NNC(=O)c1ccccc1O)c1cccc(Br)c1", "TGI": "> 100"}
{"smiles": "CCOc1nnnc2nc[nH]c12", "TGI": "> 100"}
{"smiles": "CN(C)CCSc1cc(-c2ccccc2)c2ccccc2n1", "TGI": 25.5}
{"smiles": "CN1C(=O)C2CCCC(=O)N2c2cccnc21", "note": "(centres undefined)", "TGI": "> 100"}
{"smiles": "Cc1ncc([N+](=O)[O-])n1CCNCCCCn1ccnc1[N+](=O)[O-]", "TGI": "> 100"}
{"test_system": "K-562 leukemia", "assay": "NCI-60 cell line screen, 48 h", "units": {"TGI": "µM"}}
{"smiles": "CC12CCC3c4ccc(O)cc4CCC3C1C/C(=N\\O)C2O", "note": "(centres undefined)", "TGI": "> 100"}
{"smiles": "O=c1[nH]c2ccc(O)cc2o1", "TGI": "> 100"}
{"smiles": "CC(=O)N(C)CCc1c[nH]c2ccccc12", "TGI": "> 100"}
{"smiles": "O=C(NNC(=O)c1ccccc1O)c1cccc(Br)c1", "TGI": "> 100"}
{"smiles": "CN(C)CCSc1cc(-c2ccccc2)c2ccccc2n1", "TGI": 23.5}
{"smiles": "CN1C(=O)C2CCCC(=O)N2c2cccnc21", "note": "(centres undefined)", "TGI": "> 100"}
{"smiles": "Cc1ncc([N+](=O)[O-])n1CCNCCCCn1ccnc1[N+](=O)[O-]", "TGI": "> 100"}
{"test_system": "KM12 colon", "assay": "NCI-60 cell line screen, 48 h", "units": {"TGI": "µM"}}
{"smiles": "CC12CCC3c4ccc(O)cc4CCC3C1C/C(=N\\O)C2O", "note": "(centres undefined)", "TGI": "> 100"}
{"smiles": "O=c1[nH]c2ccc(O)cc2o1", "TGI": "> 100"}
{"smiles": "CC(=O)N(C)CCc1c[nH]c2ccccc12", "TGI": "> 100"}
{"smiles": "O=C(NNC(=O)c1ccccc1O)c1cccc(Br)c1", "TGI": "> 100"}
{"smiles": "CCOc1nnnc2nc[nH]c12", "TGI": "> 100"}
{"smiles": "CN(C)CCSc1cc(-c2ccccc2)c2ccccc2n1", "TGI": 29}
{"smiles": "CN1C(=O)C2CCCC(=O)N2c2cccnc21", "note": "(centres undefined)", "TGI": "> 100"}
{"smiles": "Cc1ncc([N+](=O)[O-])n1CCNCCCCn1ccnc1[N+](=O)[O-]", "TGI": "> 100"}
{"test_system": "LOX IMVI melanoma", "assay": "NCI-60 cell line screen, 48 h", "units": {"TGI": "µM"}}
{"smiles": "CC12CCC3c4ccc(O)cc4CCC3C1C/C(=N\\O)C2O", "note": "(centres undefined)", "TGI": "> 100"}
{"smiles": "CC(=O)N(C)CCc1c[nH]c2ccccc12", "TGI": "> 100"}
{"smiles": "O=C(NNC(=O)c1ccccc1O)c1cccc(Br)c1", "TGI": "> 100"}
{"smiles": "CCOc1nnnc2nc[nH]c12", "TGI": "> 100"}
{"smiles": "CN(C)CCSc1cc(-c2ccccc2)c2ccccc2n1", "TGI": 26.6}
{"smiles": "CN1C(=O)C2CCCC(=O)N2c2cccnc21", "note": "(centres undefined)", "TGI": "> 100"}
{"smiles": "Cc1ncc([N+](=O)[O-])n1CCNCCCCn1ccnc1[N+](=O)[O-]", "TGI": "> 100"}
{"test_system": "M14 melanoma", "assay": "NCI-60 cell line screen, 48 h", "units": {"TGI": "µM"}}
{"smiles": "CC12CCC3c4ccc(O)cc4CCC3C1C/C(=N\\O)C2O", "note": "(centres undefined)", "TGI": "> 100"}
{"smiles": "O=c1[nH]c2ccc(O)cc2o1", "TGI": "> 100"}
{"smiles": "CC(=O)N(C)CCc1c[nH]c2ccccc12", "TGI": "> 100"}
{"smiles": "O=C(NNC(=O)c1ccccc1O)c1cccc(Br)c1", "TGI": "> 100"}
{"smiles": "CCOc1nnnc2nc[nH]c12", "TGI": "> 100"}
{"smiles": "CN(C)CCSc1cc(-c2ccccc2)c2ccccc2n1", "TGI": 7.01}
{"smiles": "Cc1ncc([N+](=O)[O-])n1CCNCCCCn1ccnc1[N+](=O)[O-]", "TGI": "> 100"}
{"test_system": "MALME-3M melanoma", "assay": "NCI-60 cell line screen, 48 h", "units": {"TGI": "µM"}}
{"smiles": "CC12CCC3c4ccc(O)cc4CCC3C1C/C(=N\\O)C2O", "note": "(centres undefined)", "TGI": "> 100"}
{"smiles": "O=c1[nH]c2ccc(O)cc2o1", "TGI": "> 100"}
{"smiles": "CC(=O)N(C)CCc1c[nH]c2ccccc12", "TGI": "> 100"}
{"smiles": "O=C(NNC(=O)c1ccccc1O)c1cccc(Br)c1", "TGI": "> 100"}
{"smiles": "CCOc1nnnc2nc[nH]c12", "TGI": "> 100"}
{"smiles": "CN(C)CCSc1cc(-c2ccccc2)c2ccccc2n1", "TGI": 26}
{"smiles": "CN1C(=O)C2CCCC(=O)N2c2cccnc21", "note": "(centres undefined)", "TGI": "> 100"}
{"smiles": "Cc1ncc([N+](=O)[O-])n1CCNCCCCn1ccnc1[N+](=O)[O-]", "TGI": "> 100"}
{"test_system": "MCF7 breast", "assay": "NCI-60 cell line screen, 48 h", "units": {"TGI": "µM"}}
{"smiles": "CC12CCC3c4ccc(O)cc4CCC3C1C/C(=N\\O)C2O", "note": "(centres undefined)", "TGI": "> 100"}
{"smiles": "O=c1[nH]c2ccc(O)cc2o1", "TGI": "> 100"}
{"smiles": "CC(=O)N(C)CCc1c[nH]c2ccccc12", "TGI": "> 100"}
{"smiles": "O=C(NNC(=O)c1ccccc1O)c1cccc(Br)c1", "TGI": "> 60.3"}
{"smiles": "CCOc1nnnc2nc[nH]c12", "TGI": "> 100"}
{"smiles": "CN(C)CCSc1cc(-c2ccccc2)c2ccccc2n1", "TGI": 27.8}
{"smiles": "CN1C(=O)C2CCCC(=O)N2c2cccnc21", "note": "(centres undefined)", "TGI": "> 100"}
{"smiles": "Cc1ncc([N+](=O)[O-])n1CCNCCCCn1ccnc1[N+](=O)[O-]", "TGI": "> 100"}
{"test_system": "MDA-MB-231 breast", "assay": "NCI-60 cell line screen, 48 h", "units": {"TGI": "µM"}}
{"smiles": "CC12CCC3c4ccc(O)cc4CCC3C1C/C(=N\\O)C2O", "note": "(centres undefined)", "TGI": "> 100"}
{"smiles": "O=c1[nH]c2ccc(O)cc2o1", "TGI": "> 100"}
{"smiles": "CC(=O)N(C)CCc1c[nH]c2ccccc12", "TGI": "> 100"}
{"smiles": "O=C(NNC(=O)c1ccccc1O)c1cccc(Br)c1", "TGI": "> 77.7"}
{"smiles": "CCOc1nnnc2nc[nH]c12", "TGI": "> 100"}
{"smiles": "CN(C)CCSc1cc(-c2ccccc2)c2ccccc2n1", "TGI": 24}
{"smiles": "CN1C(=O)C2CCCC(=O)N2c2cccnc21", "note": "(centres undefined)", "TGI": "> 100"}
{"smiles": "Cc1ncc([N+](=O)[O-])n1CCNCCCCn1ccnc1[N+](=O)[O-]", "TGI": "> 100"}
{"test_system": "MDA-MB-435", "assay": "NCI-60 cell line screen, 48 h", "units": {"TGI": "µM"}}
{"smiles": "CC12CCC3c4ccc(O)cc4CCC3C1C/C(=N\\O)C2O", "note": "(centres undefined)", "TGI": "> 100"}
{"smiles": "CC(=O)N(C)CCc1c[nH]c2ccccc12", "TGI": "> 100"}
{"smiles": "O=C(NNC(=O)c1ccccc1O)c1cccc(Br)c1", "TGI": "> 100"}
{"smiles": "CCOc1nnnc2nc[nH]c12", "TGI": "> 100"}
{"smiles": "CN(C)CCSc1cc(-c2ccccc2)c2ccccc2n1", "TGI": 22.1}
{"smiles": "CN1C(=O)C2CCCC(=O)N2c2cccnc21", "note": "(centres undefined)", "TGI": "> 100"}
{"smiles": "Cc1ncc([N+](=O)[O-])n1CCNCCCCn1ccnc1[N+](=O)[O-]", "TGI": "> 100"}
{"test_system": "MDA-N", "assay": "NCI-60 cell line screen, 48 h", "units": {"TGI": "µM"}}
{"smiles": "CC12CCC3c4ccc(O)cc4CCC3C1C/C(=N\\O)C2O", "note": "(centres undefined)", "TGI": "> 100"}
{"smiles": "O=c1[nH]c2ccc(O)cc2o1", "TGI": "> 100"}
{"smiles": "CC(=O)N(C)CCc1c[nH]c2ccccc12", "TGI": "> 100"}
{"smiles": "O=C(NNC(=O)c1ccccc1O)c1cccc(Br)c1", "TGI": "> 100"}
{"smiles": "CCOc1nnnc2nc[nH]c12", "TGI": "> 100"}
{"smiles": "CN(C)CCSc1cc(-c2ccccc2)c2ccccc2n1", "TGI": 22.7}
{"smiles": "CN1C(=O)C2CCCC(=O)N2c2cccnc21", "note": "(centres undefined)", "TGI": "> 100"}
{"smiles": "Cc1ncc([N+](=O)[O-])n1CCNCCCCn1ccnc1[N+](=O)[O-]", "TGI": "> 100"}
{"test_system": "MOLT-4 leukemia", "assay": "NCI-60 cell line screen, 48 h", "units": {"TGI": "µM"}}
{"smiles": "CC12CCC3c4ccc(O)cc4CCC3C1C/C(=N\\O)C2O", "note": "(centres undefined)", "TGI": "> 100"}
{"smiles": "O=c1[nH]c2ccc(O)cc2o1", "TGI": "> 100"}
{"smiles": "CC(=O)N(C)CCc1c[nH]c2ccccc12", "TGI": "> 100"}
{"smiles": "O=C(NNC(=O)c1ccccc1O)c1cccc(Br)c1", "TGI": "> 81"}
{"smiles": "CCOc1nnnc2nc[nH]c12", "TGI": "> 100"}
{"smiles": "CN1C(=O)C2CCCC(=O)N2c2cccnc21", "note": "(centres undefined)", "TGI": "> 100"}
{"smiles": "Cc1ncc([N+](=O)[O-])n1CCNCCCCn1ccnc1[N+](=O)[O-]", "TGI": "> 100"}
{"test_system": "NCI-H226 lung", "assay": "NCI-60 cell line screen, 48 h", "units": {"TGI": "µM"}}
{"smiles": "CC12CCC3c4ccc(O)cc4CCC3C1C/C(=N\\O)C2O", "note": "(centres undefined)", "TGI": "> 100"}
{"smiles": "O=c1[nH]c2ccc(O)cc2o1", "TGI": "> 100"}
{"smiles": "CC(=O)N(C)CCc1c[nH]c2ccccc12", "TGI": "> 100"}
{"smiles": "O=C(NNC(=O)c1ccccc1O)c1cccc(Br)c1", "TGI": "> 100"}
{"smiles": "CCOc1nnnc2nc[nH]c12", "TGI": "> 100"}
{"smiles": "CN(C)CCSc1cc(-c2ccccc2)c2ccccc2n1", "TGI": 33.4}
